Results reported in ChEMBL document CHEMBL5352421, “Identification of novel piperazine-tethered phthalazines as selective CDK1 inhibitors endowed with in vitro anticancer activity toward the pancreatic cancer” (Eur J Med Chem, 2022).

Key:
[1] = Antiproliferative activity against human MDA-PATC53 cells assessed as growth inhibition incubated at 10 uM for 24 hrs by MTT assay relative to control; assay type: functional; settings: read-out: GI
[2] = Antiproliferative activity against human PL45 cells assessed as growth inhibition incubated at 10 uM for 24 hrs by MTT assay relative to control; assay type: functional; settings: read-out: GI
SK-MEL-1 = experiment: Antiproliferative activity against human SK-MEL-1 cells assessed as growth inhibition incubated at 10 uM for 24 hrs by MTT assay relative to control; assay type: functional; settings: read-out: GI
A-375 = experiment: Antiproliferative activity against human A-375 cells assessed as growth inhibition incubated at 10 uM for 24 hrs by MTT assay relative to control; assay type: functional; settings: read-out: GI
G-361 = experiment: Antiproliferative activity against human G-361 cells assessed as growth inhibition incubated at 10 uM for 24 hrs by MTT assay relative to control; assay type: functional; settings: read-out: GI
MOLT-4 = experiment: Antiproliferative activity against human MOLT-4 cells assessed as growth inhibition incubated at 10 uM for 24 hrs by MTT assay relative to control; assay type: functional; settings: read-out: GI
KG-1 = experiment: Antiproliferative activity against human KG-1 cells assessed as growth inhibition incubated at 10 uM for 24 hrs by MTT assay relative to control; assay type: functional; settings: read-out: GI
T84 = experiment: Antiproliferative activity against human T84 cells assessed as growth inhibition incubated at 10 uM for 24 hrs by MTT assay relative to control; assay type: functional; settings: read-out: GI
HT-29 = experiment: Antiproliferative activity against human HT-29 cells assessed as growth inhibition incubated at 10 uM for 24 hrs by MTT assay relative to control; assay type: functional; settings: read-out: GI
MCF7 = experiment: Antiproliferative activity against human MCF7 cells assessed as growth inhibition incubated at 10 uM for 24 hrs by MTT assay relative to control; assay type: functional; settings: read-out: GI
BT-549 = experiment: Antiproliferative activity against human BT-549 cells assessed as growth inhibition incubated at 10 uM for 24 hrs by MTT assay relative to control; assay type: functional; settings: read-out: GI
[3] = Antiproliferative activity against human MDA-PATC53 cells assessed as growth inhibition incubated for 24 hrs by MTT assay; assay type: functional, cell-based; settings: MDA-PATC53, 24 h
[4] = Antiproliferative activity against human PL45 cells assessed as growth inhibition incubated for 24 hrs by MTT assay; assay type: functional, cell-based; settings: PL45, 24 h
[5] = target: Cyclin-dependent kinase 1 (Homo sapiens, UniProt P06493); experiment: Inhibition of CDK1 (unknown origin) by FRET assay
[6] = target: Cyclin-dependent kinase 2 (Homo sapiens, UniProt P24941); experiment: Inhibition of CDK2 (unknown origin) by FRET assay
[7] = target: Cyclin-dependent kinase 5 (Homo sapiens, UniProt Q00535); experiment: Inhibition of CDK5 (unknown origin) by FRET assay
[8] = Selectivity index, ratio of IC50 for CDK2 (unknown origin) to CDK1 (unknown origin)
[9] = Selectivity index, ratio of IC50 for CDK5 (unknown origin) to CDK1 (unknown origin)
[10] = target: T1, Tyrosine-protein kinase receptor UFO (Homo sapiens, UniProt P30530); experiment: Inhibition of AXL (unknown origin) by FRET assay
T1 sequence (P30530 whole entry): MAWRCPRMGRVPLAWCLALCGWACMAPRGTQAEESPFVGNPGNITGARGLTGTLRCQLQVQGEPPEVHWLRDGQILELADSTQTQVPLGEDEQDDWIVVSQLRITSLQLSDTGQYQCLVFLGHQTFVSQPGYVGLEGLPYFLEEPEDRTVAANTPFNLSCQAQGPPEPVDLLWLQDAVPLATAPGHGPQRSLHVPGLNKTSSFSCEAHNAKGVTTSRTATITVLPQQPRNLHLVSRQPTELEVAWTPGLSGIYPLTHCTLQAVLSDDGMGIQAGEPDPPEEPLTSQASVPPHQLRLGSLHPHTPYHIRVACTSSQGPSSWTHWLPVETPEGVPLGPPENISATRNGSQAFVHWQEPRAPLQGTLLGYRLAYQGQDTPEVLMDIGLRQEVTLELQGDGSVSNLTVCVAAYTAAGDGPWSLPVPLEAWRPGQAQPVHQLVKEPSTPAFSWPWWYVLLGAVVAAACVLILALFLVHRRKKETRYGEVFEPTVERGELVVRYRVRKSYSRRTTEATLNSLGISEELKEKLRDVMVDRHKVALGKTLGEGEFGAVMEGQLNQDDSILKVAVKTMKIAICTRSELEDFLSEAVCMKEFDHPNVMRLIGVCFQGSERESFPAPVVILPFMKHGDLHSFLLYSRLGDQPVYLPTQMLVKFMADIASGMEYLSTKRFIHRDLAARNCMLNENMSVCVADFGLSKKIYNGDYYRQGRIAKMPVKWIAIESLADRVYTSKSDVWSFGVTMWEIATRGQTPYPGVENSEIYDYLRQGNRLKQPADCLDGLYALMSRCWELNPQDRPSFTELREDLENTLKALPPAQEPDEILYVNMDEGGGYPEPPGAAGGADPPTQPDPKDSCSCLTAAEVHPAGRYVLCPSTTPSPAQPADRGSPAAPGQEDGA

[11] = target: Protein-tyrosine kinase 2-beta (Homo sapiens, UniProt Q14289); experiment: Inhibition of PTK2B (unknown origin) by FRET assay
[12] = target: Fibroblast growth factor receptor (Homo sapiens, UniProt P22607+P11362+P22455+P21802); experiment: Inhibition of FGFR (unknown origin) by FRET assay; assay type: protein assay
[13] = target: Tyrosine-protein kinase JAK1 (Homo sapiens, UniProt P23458); experiment: Inhibition of JAK1 (unknown origin) by FRET assay
[14] = target: Insulin-like growth factor 1 receptor (Homo sapiens, UniProt P08069); experiment: Inhibition of IGF1R (unknown origin) by FRET assay
[15] = target: Serine/threonine-protein kinase B-raf (Homo sapiens, UniProt P15056); experiment: Inhibition of BRAF (unknown origin) by FRET assay
Sequence of Serine/threonine-protein kinase B-raf (P15056 whole entry): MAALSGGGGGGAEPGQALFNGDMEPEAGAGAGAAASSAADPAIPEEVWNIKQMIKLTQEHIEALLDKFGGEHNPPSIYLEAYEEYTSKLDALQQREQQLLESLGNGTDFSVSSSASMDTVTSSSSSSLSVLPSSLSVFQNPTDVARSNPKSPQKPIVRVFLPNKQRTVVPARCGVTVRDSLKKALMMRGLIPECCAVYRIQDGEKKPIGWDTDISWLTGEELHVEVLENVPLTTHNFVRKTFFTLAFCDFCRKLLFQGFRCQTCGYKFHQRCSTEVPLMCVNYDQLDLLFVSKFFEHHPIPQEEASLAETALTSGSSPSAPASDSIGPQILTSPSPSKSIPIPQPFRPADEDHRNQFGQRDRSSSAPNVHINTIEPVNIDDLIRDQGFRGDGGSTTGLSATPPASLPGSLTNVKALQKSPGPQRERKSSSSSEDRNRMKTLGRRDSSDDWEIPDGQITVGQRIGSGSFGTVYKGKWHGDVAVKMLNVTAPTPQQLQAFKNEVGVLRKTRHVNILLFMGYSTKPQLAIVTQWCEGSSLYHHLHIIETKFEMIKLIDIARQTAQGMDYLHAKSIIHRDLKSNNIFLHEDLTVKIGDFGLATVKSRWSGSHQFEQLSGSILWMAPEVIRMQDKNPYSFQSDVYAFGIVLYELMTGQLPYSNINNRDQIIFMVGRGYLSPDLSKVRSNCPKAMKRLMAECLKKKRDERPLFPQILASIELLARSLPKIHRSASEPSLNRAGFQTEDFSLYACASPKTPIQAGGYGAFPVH

Sequence of Tyrosine-protein kinase JAK1 (P23458 whole entry): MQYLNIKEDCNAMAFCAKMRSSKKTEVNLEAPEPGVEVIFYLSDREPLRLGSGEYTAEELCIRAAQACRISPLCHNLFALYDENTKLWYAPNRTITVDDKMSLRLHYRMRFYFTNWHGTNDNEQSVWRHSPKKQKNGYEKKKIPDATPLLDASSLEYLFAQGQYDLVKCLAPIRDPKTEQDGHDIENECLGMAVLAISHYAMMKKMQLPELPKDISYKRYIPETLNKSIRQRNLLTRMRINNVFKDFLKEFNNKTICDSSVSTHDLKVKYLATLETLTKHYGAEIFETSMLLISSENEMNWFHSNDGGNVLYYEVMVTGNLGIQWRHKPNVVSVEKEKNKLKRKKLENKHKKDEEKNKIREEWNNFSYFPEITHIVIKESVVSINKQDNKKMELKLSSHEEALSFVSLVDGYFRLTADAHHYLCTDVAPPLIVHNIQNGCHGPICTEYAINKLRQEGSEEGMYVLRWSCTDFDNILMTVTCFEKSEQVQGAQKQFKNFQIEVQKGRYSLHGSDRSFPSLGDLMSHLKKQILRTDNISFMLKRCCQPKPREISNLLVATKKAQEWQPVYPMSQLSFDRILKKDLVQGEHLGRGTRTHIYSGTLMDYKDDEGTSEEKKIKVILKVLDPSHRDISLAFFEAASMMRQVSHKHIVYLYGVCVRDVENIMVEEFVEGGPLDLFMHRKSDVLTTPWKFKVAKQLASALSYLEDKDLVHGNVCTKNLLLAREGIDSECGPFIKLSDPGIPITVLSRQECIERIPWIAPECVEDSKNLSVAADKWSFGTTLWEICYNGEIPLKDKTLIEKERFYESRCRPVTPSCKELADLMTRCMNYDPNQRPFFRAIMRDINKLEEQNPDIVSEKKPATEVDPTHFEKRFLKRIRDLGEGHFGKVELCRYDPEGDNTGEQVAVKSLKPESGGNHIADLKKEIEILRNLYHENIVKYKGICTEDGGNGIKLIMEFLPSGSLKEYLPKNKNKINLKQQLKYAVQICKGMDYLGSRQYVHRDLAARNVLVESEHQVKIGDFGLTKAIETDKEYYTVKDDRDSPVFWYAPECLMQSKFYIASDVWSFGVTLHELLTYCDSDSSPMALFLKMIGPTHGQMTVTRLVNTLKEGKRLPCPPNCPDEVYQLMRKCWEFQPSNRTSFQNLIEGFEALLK
Sequence of Cyclin-dependent kinase 5 (Q00535 whole entry): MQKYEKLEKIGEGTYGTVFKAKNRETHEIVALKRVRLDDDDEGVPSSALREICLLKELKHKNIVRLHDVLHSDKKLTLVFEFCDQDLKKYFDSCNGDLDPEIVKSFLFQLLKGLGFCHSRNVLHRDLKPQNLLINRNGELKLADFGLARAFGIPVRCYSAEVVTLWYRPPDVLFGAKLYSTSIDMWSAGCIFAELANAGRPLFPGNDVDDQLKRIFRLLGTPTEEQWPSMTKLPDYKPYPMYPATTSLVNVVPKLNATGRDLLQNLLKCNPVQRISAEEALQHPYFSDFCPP
Sequence of Protein-tyrosine kinase 2-beta (Q14289 whole entry): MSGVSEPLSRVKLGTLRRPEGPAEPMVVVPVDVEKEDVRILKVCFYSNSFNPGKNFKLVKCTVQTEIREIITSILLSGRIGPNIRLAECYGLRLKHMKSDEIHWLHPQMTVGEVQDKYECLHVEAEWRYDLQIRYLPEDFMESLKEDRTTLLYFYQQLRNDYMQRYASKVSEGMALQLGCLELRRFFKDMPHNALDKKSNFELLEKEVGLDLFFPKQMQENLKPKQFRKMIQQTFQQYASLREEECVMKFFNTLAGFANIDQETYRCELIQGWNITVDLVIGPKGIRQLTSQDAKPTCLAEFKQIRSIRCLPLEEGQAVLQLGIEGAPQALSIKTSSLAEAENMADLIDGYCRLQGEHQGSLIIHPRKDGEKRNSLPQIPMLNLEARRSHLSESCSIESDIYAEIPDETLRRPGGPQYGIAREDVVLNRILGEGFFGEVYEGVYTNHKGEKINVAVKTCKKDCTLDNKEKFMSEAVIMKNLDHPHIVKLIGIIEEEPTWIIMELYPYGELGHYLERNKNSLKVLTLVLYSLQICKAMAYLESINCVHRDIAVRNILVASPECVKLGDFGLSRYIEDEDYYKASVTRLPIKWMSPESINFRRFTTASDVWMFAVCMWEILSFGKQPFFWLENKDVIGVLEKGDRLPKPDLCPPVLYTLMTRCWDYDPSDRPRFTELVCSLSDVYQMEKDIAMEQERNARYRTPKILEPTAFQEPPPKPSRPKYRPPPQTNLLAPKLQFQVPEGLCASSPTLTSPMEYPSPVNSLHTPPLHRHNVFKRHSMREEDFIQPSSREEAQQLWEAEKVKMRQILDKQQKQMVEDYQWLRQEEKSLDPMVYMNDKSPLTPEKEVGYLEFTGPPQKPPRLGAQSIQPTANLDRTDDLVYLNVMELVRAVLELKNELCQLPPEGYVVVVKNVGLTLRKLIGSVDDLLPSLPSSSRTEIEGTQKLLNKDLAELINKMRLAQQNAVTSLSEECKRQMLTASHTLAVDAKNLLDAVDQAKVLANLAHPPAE
Sequence of Insulin-like growth factor 1 receptor (P08069 31-736 limits assumed): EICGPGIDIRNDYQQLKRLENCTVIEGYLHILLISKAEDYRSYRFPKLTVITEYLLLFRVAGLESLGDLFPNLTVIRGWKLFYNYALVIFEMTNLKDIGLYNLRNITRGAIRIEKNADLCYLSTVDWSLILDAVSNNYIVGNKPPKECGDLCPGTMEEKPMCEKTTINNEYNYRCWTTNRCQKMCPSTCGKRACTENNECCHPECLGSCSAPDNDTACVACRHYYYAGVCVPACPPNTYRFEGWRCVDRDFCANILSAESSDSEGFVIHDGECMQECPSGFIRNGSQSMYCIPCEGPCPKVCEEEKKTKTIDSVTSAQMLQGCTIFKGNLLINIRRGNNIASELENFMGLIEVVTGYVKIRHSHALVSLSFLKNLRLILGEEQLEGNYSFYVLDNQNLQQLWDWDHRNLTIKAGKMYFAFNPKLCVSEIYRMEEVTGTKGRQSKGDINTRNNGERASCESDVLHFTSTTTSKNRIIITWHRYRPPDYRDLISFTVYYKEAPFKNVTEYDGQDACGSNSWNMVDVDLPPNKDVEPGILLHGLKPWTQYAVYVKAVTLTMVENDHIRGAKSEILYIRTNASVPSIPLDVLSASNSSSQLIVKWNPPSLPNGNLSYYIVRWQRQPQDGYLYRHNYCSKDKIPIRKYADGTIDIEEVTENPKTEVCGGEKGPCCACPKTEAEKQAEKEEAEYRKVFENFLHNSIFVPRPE
Sequence of Insulin-like growth factor 1 receptor (P08069 741-1367 limits assumed): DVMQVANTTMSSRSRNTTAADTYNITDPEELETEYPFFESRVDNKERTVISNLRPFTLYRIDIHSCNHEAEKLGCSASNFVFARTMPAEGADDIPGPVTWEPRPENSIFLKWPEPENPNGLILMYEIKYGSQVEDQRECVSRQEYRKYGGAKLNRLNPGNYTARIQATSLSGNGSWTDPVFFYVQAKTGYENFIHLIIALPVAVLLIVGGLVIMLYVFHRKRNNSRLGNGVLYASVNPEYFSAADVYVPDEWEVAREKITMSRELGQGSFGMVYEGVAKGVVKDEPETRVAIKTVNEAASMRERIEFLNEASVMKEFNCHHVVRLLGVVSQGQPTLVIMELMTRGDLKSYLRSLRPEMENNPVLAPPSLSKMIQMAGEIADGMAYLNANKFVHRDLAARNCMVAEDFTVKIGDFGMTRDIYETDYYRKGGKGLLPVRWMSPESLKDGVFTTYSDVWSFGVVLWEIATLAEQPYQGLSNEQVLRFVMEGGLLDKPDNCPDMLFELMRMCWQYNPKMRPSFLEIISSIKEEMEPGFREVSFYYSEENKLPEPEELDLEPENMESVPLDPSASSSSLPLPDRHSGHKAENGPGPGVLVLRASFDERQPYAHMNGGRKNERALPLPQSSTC
Sequence of Cyclin-dependent kinase 1 (P06493 whole entry): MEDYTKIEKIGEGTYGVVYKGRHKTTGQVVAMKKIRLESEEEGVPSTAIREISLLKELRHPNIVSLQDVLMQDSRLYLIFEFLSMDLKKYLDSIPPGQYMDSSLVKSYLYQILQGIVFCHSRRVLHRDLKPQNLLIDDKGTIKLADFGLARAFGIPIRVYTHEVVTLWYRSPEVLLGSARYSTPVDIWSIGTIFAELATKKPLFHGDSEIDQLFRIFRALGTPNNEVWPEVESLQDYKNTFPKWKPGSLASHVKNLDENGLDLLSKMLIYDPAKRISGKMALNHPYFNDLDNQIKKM

| SMILES | inhibition of growth at 10 µM [1] [%] | inhibition of growth at 10 µM [2] [%] | inhibition of growth at 10 µM (SK-MEL-1) [%] | inhibition of growth at 10 µM (A-375) [%] | inhibition of growth at 10 µM (G-361) [%] | inhibition of growth at 10 µM (MOLT-4) [%] | inhibition of growth at 10 µM (KG-1) [%] | inhibition of growth at 10 µM (T84) [%] | inhibition of growth at 10 µM (HT-29) [%] | inhibition of growth at 10 µM (MCF7) [%] | inhibition of growth at 10 µM (BT-549) [%] | IC50 [3] [µM] | IC50 [4] [µM] | IC50 [5] [µM] | IC50 [6] [µM] | IC50 [7] [µM] | Ratio IC50 [8] | Ratio IC50 [9] | IC50 [10] [µM] | IC50 [11] [µM] | also measured |
| --- | --- | --- | --- | --- | --- | --- | --- | --- | --- | --- | --- | --- | --- | --- | --- | --- | --- | --- | --- | --- | --- |
| O=C(Nc1ccc(Cl)cc1)N1CCN(c2nnc(Cc3ccccc3)c3ccccc23)CC1 | 67.4 | 81.8 | 50.1 | 66.3 | 47 | 33 | 57.9 | 29.4 | 81.2 | 64.8 | 23 | 5.3 | 2.21 | 0.0584 | 0.103 | 0.826 | 1.76 | 14.2 | 8.75 | 1.33 | IC50 [12]: 6.346 µM; IC50 [13]: 4.55 µM; IC50 [14]: 3.15 µM; IC50 [15]: 3.65 µM |
| COc1ccc(Cc2nnc(N3CCN(C(=O)c4ccccc4)CC3)c3ccccc23)cc1 | 70.4 | 44.6 | 2.02 | 10.3 | 8.66 | 9.47 | 12.1 | 18.3 | 5.09 | 11.4 | 19 | 4.07 | 12.9 | 0.091 | 0.455 | 0.391 | 5 | 4.3 | 5.49 | 4.33 | IC50 [12]: 6.332 µM; IC50 [13]: 5.6 µM; IC50 [14]: 1.53 µM; IC50 [15]: 3.26 µM |
| COc1ccc(NC(=O)N2CCN(c3nnc(Cc4ccccc4)c4ccccc34)CC2)cc1 | 85.2 | 71.5 | 54.3 | 34.9 | 25.7 | 52.9 | 71.3 | 48 | 54.1 | 34 | 43.9 | 1.7 | 4.6 | 0.0665 | 0.108 | 0.28 | 1.63 | 4.22 | 2.33 | 7.25 | IC50 [12]: 4.567 µM; IC50 [13]: 8.5 µM; IC50 [14]: 4.26 µM; IC50 [15]: 2.43 µM |
| COc1cccc(NC(=S)N2CCN(c3nnc(Cc4ccccc4)c4ccccc34)CC2)c1 | 76.3 | 66 | 49.3 | 60.1 | 31.2 | 31.2 | 28.5 | 49.7 | 60.2 | 34.2 | 52.1 | 3.88 | 5.76 | 0.0884 | 0.426 | 0.705 | 4.82 | 7.98 | 7.95 | 4.49 | IC50 [12]: 3.853 µM; IC50 [13]: 3.54 µM; IC50 [14]: 1.13 µM; IC50 [15]: 3.88 µM |
| O=C(c1ccccc1)N1CCN(c2nnc(Cc3ccccc3)c3ccccc23)CC1 | 75.8 | 68.5 | 54.9 | 32.1 | 47.9 | 51.2 | 73.6 | 26.3 | 40.4 | 38.4 | 24.3 | 3.42 | 5.03 | 0.0625 | 0.115 | 0.276 | 1.84 | 4.41 | 4.88 | 3.57 | IC50 [12]: 5.254 µM; IC50 [13]: 7.18 µM; IC50 [14]: 3.66 µM; IC50 [15]: 7.82 µM |
| COc1ccc(NC(=S)N2CCN(c3nnc(Cc4ccccc4)c4ccccc34)CC2)cc1 | 49 | 49.6 | 6.64 | 11.2 | 24.6 | 14.2 | 1.36 | 9.67 | 21.9 | 10.1 | 8.65 | 10.2 | 12.5 | 0.126 | 0.308 | 0.498 | 2.43 | 3.94 | 4.42 | 3.64 | IC50 [12]: 5.517 µM; IC50 [13]: 2.54 µM; IC50 [14]: 8.63 µM; IC50 [15]: 4.49 µM |
| COc1ccc(Cc2nnc(N3CCN(C(=O)Nc4ccc(OC)cc4)CC3)c3ccccc23)cc1 | 73.1 | 66.1 | 39 | 25.8 | 49 | 25.4 | 0.31 | 57.5 | 32.1 | 24.2 | 50.3 | 4.12 | 5.09 | 0.052 | 0.345 | 0.14 | 6.63 | 2.7 | 4.74 | 4.82 | IC50 [12]: 3.512 µM; IC50 [13]: 1.57 µM; IC50 [14]: 0.865 µM; IC50 [15]: 3.7 µM |
| COc1ccc(Cc2nnc(N3CCN(C(=S)Nc4ccccc4)CC3)c3ccccc23)cc1 | 76.2 | 42.3 | 11.4 | 17 | 4.21 | 28.7 | 13.9 | 7.38 | 16.9 | 14 | 13.2 | 2.06 | 13.3 | 0.0851 | 0.524 | 0.996 | 6.16 | 11.7 | 1.17 | 1.45 | IC50 [12]: 7.953 µM; IC50 [13]: 3.55 µM; IC50 [14]: 2.43 µM; IC50 [15]: 4.73 µM |
